“And” between values parts separate entries of the source, which are not always exact repeats. Equal values may be shown once.
Experiments:
Experiment in all cases: biochemical
[1] = target: MARK2 (Homo sapiens, UniProt Q7KZI7)
[2] = target: KIAA0999 (Homo sapiens, UniProt Q9Y2K2)
[3] = target: T1, AURKA (Homo sapiens, UniProt O14965)
T1 sequence (O14965 1-403): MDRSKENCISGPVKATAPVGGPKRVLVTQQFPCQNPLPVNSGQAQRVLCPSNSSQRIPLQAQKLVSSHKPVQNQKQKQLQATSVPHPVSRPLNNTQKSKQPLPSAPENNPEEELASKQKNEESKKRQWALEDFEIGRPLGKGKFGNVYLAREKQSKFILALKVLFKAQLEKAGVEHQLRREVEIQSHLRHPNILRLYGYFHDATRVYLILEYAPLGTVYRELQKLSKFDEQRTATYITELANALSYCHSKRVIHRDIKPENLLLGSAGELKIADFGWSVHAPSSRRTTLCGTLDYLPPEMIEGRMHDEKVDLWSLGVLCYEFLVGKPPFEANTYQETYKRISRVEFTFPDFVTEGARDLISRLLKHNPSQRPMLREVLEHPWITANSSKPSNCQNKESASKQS

[4] = target: T2, PRKD2 (Homo sapiens, UniProt Q9BZL6)
T2 sequence (Q9BZL6 1-878): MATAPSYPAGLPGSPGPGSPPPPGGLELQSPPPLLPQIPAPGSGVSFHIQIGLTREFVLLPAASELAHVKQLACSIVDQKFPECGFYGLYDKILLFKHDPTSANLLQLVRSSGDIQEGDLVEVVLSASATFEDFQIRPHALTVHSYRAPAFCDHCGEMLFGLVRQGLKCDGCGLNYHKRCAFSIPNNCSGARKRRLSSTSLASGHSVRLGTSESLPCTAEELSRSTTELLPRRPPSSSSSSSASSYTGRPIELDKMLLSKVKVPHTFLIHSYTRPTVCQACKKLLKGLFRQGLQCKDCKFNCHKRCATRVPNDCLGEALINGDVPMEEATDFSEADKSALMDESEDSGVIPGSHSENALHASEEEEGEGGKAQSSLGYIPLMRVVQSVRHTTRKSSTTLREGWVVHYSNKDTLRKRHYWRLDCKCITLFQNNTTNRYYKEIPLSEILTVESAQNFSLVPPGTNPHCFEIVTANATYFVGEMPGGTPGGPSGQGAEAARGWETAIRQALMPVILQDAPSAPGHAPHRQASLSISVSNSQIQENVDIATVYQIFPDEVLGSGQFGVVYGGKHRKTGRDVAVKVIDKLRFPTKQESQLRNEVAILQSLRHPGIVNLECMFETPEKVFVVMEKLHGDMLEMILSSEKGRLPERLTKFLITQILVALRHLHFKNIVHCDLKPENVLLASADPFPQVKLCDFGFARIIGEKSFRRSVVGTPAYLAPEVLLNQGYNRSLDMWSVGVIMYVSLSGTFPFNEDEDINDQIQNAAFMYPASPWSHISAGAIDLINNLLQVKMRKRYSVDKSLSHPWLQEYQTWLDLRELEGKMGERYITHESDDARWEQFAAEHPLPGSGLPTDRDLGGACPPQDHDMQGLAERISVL

[5] = target: CAMK2D (Homo sapiens, UniProt Q13557)
[6] = target: GSK3B (Homo sapiens, UniProt P49841)
[7] = target: DDR1 (Homo sapiens, UniProt Q08345)
[8] = target: MAPK8 (Homo sapiens, UniProt P45983)
[9] = target: MAP2K2 (Homo sapiens, UniProt P36507)
[10] = target: PAK4 (Homo sapiens, UniProt O96013)
[11] = target: T3, TNK1 (Homo sapiens, UniProt Q13470)
T3 sequence (Q13470 1-666): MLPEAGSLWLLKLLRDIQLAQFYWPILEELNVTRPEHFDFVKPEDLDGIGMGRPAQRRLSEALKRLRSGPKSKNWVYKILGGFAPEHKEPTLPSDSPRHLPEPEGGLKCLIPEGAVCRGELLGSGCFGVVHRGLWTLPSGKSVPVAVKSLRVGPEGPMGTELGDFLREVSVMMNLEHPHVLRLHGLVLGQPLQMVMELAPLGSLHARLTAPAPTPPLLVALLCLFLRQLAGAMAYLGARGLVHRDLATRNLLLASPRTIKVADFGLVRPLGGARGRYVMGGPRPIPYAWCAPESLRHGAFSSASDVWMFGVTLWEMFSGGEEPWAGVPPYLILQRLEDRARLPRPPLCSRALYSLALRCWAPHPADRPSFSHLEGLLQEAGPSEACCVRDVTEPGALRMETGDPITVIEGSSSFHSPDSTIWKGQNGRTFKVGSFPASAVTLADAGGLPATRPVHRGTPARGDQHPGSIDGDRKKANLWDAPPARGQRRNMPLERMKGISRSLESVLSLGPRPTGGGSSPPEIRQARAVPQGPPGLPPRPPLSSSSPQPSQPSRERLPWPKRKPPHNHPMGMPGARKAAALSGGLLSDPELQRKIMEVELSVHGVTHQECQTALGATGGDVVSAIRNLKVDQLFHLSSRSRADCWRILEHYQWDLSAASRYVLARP

[12] = target: NTRK1 (Homo sapiens, UniProt P04629)
[13] = target: STK16 (Homo sapiens, UniProt O75716)
[14] = target: PRKCB (Homo sapiens, UniProt P05771)
[15] = target: CSNK1D (Homo sapiens, UniProt P48730)
[16] = target: BUB1 (Homo sapiens, UniProt O43683)
[17] = target: STK10 (Homo sapiens, UniProt O94804)
[18] = target: PIK3R4 (Homo sapiens, UniProt Q99570)

Sequence of MARK2 (Q7KZI7 whole entry): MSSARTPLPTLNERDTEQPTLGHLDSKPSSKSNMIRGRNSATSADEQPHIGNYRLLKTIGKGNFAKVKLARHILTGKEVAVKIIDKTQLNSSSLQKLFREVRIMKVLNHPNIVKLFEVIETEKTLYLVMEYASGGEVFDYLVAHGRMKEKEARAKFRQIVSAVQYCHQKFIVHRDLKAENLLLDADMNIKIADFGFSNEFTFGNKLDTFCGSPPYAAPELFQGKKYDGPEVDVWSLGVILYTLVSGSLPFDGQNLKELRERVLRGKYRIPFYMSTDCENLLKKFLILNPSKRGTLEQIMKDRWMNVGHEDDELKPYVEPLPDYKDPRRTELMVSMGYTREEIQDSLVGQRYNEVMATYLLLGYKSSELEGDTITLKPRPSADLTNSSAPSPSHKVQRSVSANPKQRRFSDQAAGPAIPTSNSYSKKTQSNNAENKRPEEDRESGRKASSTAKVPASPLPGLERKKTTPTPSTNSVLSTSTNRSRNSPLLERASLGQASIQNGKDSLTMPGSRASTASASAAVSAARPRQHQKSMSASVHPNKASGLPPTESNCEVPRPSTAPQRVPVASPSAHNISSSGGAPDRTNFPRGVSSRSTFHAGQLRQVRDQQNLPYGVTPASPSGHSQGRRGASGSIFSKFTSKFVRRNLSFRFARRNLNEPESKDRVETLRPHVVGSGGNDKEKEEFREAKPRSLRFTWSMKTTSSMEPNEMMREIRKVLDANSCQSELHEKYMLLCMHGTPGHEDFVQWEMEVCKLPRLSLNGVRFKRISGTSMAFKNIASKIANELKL
Sequence of PRKCB (P05771 whole entry): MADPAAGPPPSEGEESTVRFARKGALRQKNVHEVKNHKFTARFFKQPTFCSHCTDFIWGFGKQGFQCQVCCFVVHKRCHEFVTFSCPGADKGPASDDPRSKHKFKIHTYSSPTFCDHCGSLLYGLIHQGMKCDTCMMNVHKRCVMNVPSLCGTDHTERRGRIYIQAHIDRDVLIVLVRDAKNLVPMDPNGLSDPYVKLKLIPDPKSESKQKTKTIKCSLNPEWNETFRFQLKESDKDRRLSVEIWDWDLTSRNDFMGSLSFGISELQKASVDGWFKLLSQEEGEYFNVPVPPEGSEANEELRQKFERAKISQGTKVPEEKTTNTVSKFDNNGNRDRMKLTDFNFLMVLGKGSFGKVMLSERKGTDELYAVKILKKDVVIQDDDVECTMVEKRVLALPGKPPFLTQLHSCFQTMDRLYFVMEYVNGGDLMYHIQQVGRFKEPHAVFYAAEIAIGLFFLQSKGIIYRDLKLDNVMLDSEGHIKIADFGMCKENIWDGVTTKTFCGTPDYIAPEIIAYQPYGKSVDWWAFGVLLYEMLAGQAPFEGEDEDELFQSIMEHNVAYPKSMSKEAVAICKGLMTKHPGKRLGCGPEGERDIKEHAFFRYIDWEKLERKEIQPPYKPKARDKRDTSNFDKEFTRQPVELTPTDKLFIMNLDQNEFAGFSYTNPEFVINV
Sequence of KIAA0999 (Q9Y2K2 whole entry): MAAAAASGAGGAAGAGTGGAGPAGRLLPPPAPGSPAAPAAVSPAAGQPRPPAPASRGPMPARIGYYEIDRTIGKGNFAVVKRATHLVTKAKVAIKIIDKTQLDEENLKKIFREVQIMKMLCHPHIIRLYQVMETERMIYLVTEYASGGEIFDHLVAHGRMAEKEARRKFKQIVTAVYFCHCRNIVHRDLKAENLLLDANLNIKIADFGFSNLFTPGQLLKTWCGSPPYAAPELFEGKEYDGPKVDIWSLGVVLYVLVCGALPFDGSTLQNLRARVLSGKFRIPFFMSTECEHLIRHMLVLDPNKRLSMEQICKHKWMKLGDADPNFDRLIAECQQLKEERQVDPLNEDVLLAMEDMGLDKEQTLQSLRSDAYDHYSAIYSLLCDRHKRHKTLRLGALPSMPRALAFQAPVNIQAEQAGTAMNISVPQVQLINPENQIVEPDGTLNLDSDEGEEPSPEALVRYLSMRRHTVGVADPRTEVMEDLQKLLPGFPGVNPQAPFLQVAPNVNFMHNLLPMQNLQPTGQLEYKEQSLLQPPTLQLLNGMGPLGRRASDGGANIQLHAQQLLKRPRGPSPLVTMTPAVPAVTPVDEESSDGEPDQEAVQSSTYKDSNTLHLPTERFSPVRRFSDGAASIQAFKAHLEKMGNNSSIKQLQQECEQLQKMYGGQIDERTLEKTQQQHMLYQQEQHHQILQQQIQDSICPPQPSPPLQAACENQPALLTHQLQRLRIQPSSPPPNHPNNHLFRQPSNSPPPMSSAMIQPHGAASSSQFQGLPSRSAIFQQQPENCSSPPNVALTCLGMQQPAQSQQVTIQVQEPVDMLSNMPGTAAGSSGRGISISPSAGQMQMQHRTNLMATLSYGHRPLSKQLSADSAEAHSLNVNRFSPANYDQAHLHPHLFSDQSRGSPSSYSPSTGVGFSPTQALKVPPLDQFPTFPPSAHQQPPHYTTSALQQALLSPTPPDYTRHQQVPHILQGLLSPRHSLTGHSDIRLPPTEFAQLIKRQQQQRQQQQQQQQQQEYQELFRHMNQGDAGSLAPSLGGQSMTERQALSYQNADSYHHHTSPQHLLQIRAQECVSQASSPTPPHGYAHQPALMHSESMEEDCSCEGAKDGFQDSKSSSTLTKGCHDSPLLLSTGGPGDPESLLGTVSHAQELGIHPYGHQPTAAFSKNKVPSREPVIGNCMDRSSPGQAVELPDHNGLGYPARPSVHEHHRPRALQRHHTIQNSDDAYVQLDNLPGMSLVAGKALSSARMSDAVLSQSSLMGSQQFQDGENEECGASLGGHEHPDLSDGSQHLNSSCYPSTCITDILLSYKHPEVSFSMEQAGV
Sequence of PAK4 (O96013 whole entry): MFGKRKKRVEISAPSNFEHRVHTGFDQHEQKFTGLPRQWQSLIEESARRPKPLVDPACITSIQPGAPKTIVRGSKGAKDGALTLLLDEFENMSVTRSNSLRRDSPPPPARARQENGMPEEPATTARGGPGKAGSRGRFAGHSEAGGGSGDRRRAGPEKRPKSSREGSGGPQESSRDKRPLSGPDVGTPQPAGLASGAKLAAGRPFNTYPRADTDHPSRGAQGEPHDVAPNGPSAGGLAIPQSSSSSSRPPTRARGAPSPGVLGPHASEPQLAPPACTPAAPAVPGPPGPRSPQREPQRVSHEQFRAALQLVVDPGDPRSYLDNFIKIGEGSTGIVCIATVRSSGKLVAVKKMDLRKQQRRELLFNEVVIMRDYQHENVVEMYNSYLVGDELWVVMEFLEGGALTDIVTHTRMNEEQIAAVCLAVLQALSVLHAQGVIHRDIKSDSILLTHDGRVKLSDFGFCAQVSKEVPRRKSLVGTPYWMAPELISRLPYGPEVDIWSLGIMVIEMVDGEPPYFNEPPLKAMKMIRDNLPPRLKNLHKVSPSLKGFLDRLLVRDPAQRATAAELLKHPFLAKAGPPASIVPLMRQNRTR
Sequence of BUB1 (O43683 whole entry): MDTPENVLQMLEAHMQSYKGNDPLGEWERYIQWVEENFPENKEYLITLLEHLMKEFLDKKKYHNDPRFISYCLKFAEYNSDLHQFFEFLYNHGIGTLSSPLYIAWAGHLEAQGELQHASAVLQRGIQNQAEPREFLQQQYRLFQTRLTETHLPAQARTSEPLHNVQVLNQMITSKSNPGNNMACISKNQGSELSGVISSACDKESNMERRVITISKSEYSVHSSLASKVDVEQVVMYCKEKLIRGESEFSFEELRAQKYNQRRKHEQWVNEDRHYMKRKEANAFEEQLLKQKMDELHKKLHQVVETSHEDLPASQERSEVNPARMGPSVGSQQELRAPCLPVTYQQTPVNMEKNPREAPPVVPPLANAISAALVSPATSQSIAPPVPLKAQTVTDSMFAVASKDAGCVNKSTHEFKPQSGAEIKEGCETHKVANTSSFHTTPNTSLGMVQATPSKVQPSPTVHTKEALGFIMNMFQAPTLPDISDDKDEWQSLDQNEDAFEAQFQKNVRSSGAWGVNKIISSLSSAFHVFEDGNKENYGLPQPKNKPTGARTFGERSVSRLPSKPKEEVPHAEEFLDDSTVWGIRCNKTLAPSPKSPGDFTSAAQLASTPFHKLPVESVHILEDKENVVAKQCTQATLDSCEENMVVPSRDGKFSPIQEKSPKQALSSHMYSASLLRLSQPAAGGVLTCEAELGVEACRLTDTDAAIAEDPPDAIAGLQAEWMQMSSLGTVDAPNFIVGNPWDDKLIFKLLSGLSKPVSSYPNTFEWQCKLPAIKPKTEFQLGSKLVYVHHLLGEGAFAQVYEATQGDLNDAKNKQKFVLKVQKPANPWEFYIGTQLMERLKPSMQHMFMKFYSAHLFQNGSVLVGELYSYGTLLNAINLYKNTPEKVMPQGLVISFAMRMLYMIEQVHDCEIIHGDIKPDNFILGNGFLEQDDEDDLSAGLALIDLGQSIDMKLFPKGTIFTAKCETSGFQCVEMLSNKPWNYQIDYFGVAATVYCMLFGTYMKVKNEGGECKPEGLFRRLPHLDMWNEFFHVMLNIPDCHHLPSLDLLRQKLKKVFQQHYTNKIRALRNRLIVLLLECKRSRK
Sequence of MAPK8 (P45983 whole entry): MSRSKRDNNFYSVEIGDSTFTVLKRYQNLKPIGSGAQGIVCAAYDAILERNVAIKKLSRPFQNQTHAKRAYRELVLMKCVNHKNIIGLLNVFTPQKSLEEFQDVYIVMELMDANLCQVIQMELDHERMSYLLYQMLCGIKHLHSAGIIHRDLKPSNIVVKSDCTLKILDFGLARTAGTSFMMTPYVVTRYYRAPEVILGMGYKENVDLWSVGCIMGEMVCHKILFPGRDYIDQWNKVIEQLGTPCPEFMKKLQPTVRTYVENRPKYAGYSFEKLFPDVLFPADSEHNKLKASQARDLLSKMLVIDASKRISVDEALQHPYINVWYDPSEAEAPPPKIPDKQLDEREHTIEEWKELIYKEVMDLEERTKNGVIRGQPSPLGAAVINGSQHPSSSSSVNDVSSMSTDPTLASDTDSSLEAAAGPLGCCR

Structure (SMILES) | IC50 [1] | IC50 [2] | IC50 [3] | IC50 [4] | IC50 [5] | IC50 [6] | IC50 [7] | IC50 [8] | IC50 [9] | IC50 [10] | IC50 [11] | IC50 [12] | IC50 [13] | IC50 [14] | IC50 [15] | IC50 [16] | IC50 [17] | IC50 [18] [nM]
CN1CCN(c2ccc(Nc3ncc(C#N)c(Nc4ccccc4C(N)=O)n3)cc2)CC1.Cl [TCMDC-134116] | 220 nM and 210 nM | 350 nM and 250 nM | ≤ 32 nM and 52 nM | 340 nM and 330 nM | 1900 nM and 960 nM | 2400 nM and 1500 nM | 600 nM and 490 nM | 1500 nM and 5100 nM | 830 nM and 980 nM | 380 nM and 420 nM | ≤ 32 nM | 2200 nM and 1500 nM | 270 nM and 380 nM | 870 nM | 1800 nM | 370 nM and 320 nM | 48 nM and 93 nM | 2200
Cl.NCC1(c2nc(-c3ccc(Cl)c(O)c3)c(-c3ccncc3)[nH]2)CCCCC1 [TCMDC-141154] | > 20000 nM | 66 nM and 51 nM | > 20000 nM | 5200 nM and 4300 nM | > 20000 nM | 7700 nM | 1800 nM | > 20000 nM | 9000 nM and > 20000 nM | 9100 nM and > 20000 nM | > 20000 nM | > 20000 nM | > 20000 nM | 12000 nM and 5900 nM | 69 nM and 79 nM | 240 nM and 170 nM | 57 nM | > 20000
CN(C)CC(O)COc1ccc(Nc2ncc([N+](=O)[O-])c(Nc3ccccc3O)n2)cc1.O=C(O)C(F)(F)F (stereo not drawn) [TCMDC-141399] | 6400 nM | > 20000 nM | > 20000 nM | 1900 nM | > 20000 nM | 8400 nM and 11000 nM | 11000 nM | > 20000 nM | > 20000 nM | 9000 nM and 6800 nM | 4200 nM and 1700 nM | > 20000 nM | 1100 nM | > 20000 nM | > 20000 nM | > 20000 nM | 6300 nM | > 20000

Source: PMC4774911, “Biochemical Screening of Five Protein Kinases from Plasmodium falciparum against 14,000 Cell-Active Compounds” (PLoS ONE, 2016)
